The results in this text go back to patent US20030125336A1, “Hydrohalide salts of an HIV protease inhibitor” (priority 2001, published 2003).

Data set [1] concerns viral construct Q60. Put plainly: cell spread assay (WO 01/05230), viral construct Q60. The class given is cell-based, HIV. The source says: (§1) Compound A and its hydrohalide salts are inhibitors of HIV protease, including mutant forms thereof that are resistant to known protease inhibitors.
The target of data set [2] is HIV protease mutant enzyme Q-60 (Human immunodeficiency virus type 1, UniProt P04585). Put plainly: inhibition of microbial expressed HIV protease (WO 01/05230), mutant enzyme Q-60. It is filed as biochemical.
Data set [3] addresses HIV protease mutant enzyme K-60 (Human immunodeficiency virus type 1, UniProt P04585). Put plainly: inhibition of microbial expressed HIV protease (WO 01/05230), mutant enzyme K-60. The class given is biochemical.
Data set [4] addresses HIV protease mutant enzyme V-18 (Human immunodeficiency virus type 1, UniProt P04585). Put plainly: inhibition of microbial expressed HIV protease (WO 01/05230), mutant enzyme V-18. The class given is biochemical.
Data set [5] deals with wild-type viral construct. Put plainly: cell spread assay (WO 01/05230), wild-type viral construct. The class given is cell-based, HIV.
Excerpt: as §1

In data set [6] the test system is viral construct K-60. Put plainly: cell spread assay (WO 01/05230), viral construct K-60. The class given is cell-based, HIV.
Excerpt: as §1

In data set [7] the test system is viral construct V-18. Put plainly: cell spread assay (WO 01/05230), viral construct V-18. It is filed as cell-based, HIV.
Excerpt: as §1

Data set [8] can be described thus: solubility in aqueous solutions. It is filed as physicochemical. The following applies: aqueous solutions including dilute HCl (gastric acid) solutions.
For data set [9], the target named is wild-type HIV protease (Human immunodeficiency virus type 1 group M subtype B, UniProt P04585). Put plainly: biochemical.
Data set [10] in a line: oral absorption and pharmacokinetics in animal models. The class given is in vivo.

Structures are written as SMILES.

Usually IC50 stands for the concentration that gives 50% inhibition. The low end stands for higher potency, the high end for lower potency. For the molecule `COc1cncc(-c2cnc(C(C)(C)N3CCN(C[C@@H](O)C[C@@H](Cc4ccccc4)C(=O)N[C@H]4c5ccccc5OC[C@H]4O)[C@H](C(=O)NCC(F)(F)F)C3)o2)c1` [Compound A, (αR,γS,2S)-N-[(3S,4S)-3,4-dihydro-3-hydroxy-2H-1-benzopyran-4-yl]-y-hydroxy-4-[1-[5-(5-methoxy-3-pyridinyl)-2-oxazolyl]-1-methylethyl]-α-(phenylmethyl)-2-[[(2,2,2-trifluoroethyl)amino]carbonyl]-1-piperazinepentanamide], the CIC95 result in data set [1] was “below 125 nM”; in [5] (wild-type viral construct), “below 50 nM”; in [6], “below 125 nM”; in data set [7], “below 125 nM”. The concentration for half-maximal inhibition (IC50) in data set [2] was under 5 nM; in data set [3] it was under 5 nM; in data set [4] it was under 5 nM; in [9], under 1 nM. The “potency compared with indinavir” value in data set [5] (cell spread assay) and in [9] (HIV protease inhibition assay) was “significantly more potent” throughout. Moreover, in [8], the solubility entry was “relatively low solubility”. In [10], the oral absorption result is “poor oral absorption”.
